For assay [1], the system named is MDA-MB-453. Nature of the assay: drug sensitivity score (DSS), in combination with BLU9931 (DSS (weighted AUC score)); higher = more sensitive (stronger viability decrease); extreme values may be limits of the assay. The settings on record: BLU9931 100 nM; 72 h. The gist of the method:
(§1)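 Drug sensitivity scores come from a weighted area under a four-parameter logistic fit to percent viability, normalised per plate to control wells. Viability was based on cellular ATP read with CellTiterGlo 2.0 after 72 h at 37 °C, 5% CO2. Each 384-well plate carried FIMM Oncology set compounds in singlicate at five 10-fold dilutions, with 2000 MDA-MB-453 cells per well in medium with or without an FGFR4 inhibitor at 100 nM final.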

For assay [2], the system named is MDA-MB-453. Nature of the assay: drug sensitivity score (DSS), single agent (DSS (weighted AUC score)); higher = more sensitive (stronger viability decrease); extreme values may be limits of the assay. The settings on record: BLU9931 0 nM; 72 h. The gist of the method:
as §1

Each structure is given as a SMILES string.

For the molecule `CC(C)C[C@H](NC(=O)CNC(=O)c1cc(Cl)ccc1Cl)B(O)O` [Ixazomib], the values for the drug sensitivity score in assay [1] and in assay [2] were 7.4 and 9.4, respectively.
Taken in the same sequence, the figures for `Nc1cc(COc2c(Cl)cc(C[C@H](N)C(=O)O)cc2Cl)c2oc(-c3ccccc3)nc2c1` [JPH203] were 1.4 and 3.
Regarding `CC(C)NC(=O)COc1cccc(-c2nc(Nc3ccc4[nH]ncc4c3)c3ccccc3n2)c1` [KD025], the drug sensitivity score in assay [1] amounted to 6; in assay [2], 5.6.
Regarding `CS(=O)(=O)CCNCc1ccc(-c2ccc3ncnc(Nc4ccc(OCc5cccc(F)c5)c(Cl)c4)c3c2)o1` [Lapatinib], the values for the drug sensitivity score in assay [1] and in assay [2] were 7 and 6.5, respectively.
Regarding `O=C(Nc1cnn2ccc(N3CCC[C@@H]3c3cc(F)ccc3F)nc12)N1CC[C@H](O)C1` [Larotrectinib], the results for the drug sensitivity score in assay [1] and in assay [2] were 0 and 0.4, respectively.
Taken in the same sequence, the figures for `Oc1ccc2c(c1)CC[C@H](c1ccccc1)[C@@H]2c1ccc(OCCN2CCCC2)cc1` [Lasofoxifene] were 0.2 and 0.7.
As for `Nc1cccc2c1CN(C1CCC(=O)NC1=O)C2=O` (stereo not given) [Lenalidomide], the drug sensitivity score in assay [1] and in assay [2] was 0 throughout.
For the molecule `COc1cc2nccc(Oc3ccc(NC(=O)NC4CC4)c(Cl)c3)c2cc1C(N)=O` [Lenvatinib], the drug sensitivity score was found to be 0.9 in assay [1] and 3.9 in assay [2].
Taken in the same sequence, the figures for `N#Cc1ccc(C(c2ccc(C#N)cc2)n2cncn2)cc1` [Letrozole] were 0 and 0.
Taken in the same sequence, the figures for `Cc1ccc(F)c(NC(=O)Nc2ccc(-c3cccc4[nH]nc(N)c34)cc2)c1` [Linifanib] were 0 and 0.
Take `C[C@]1(O)C[C@@H](c2nc(-c3ccc4ccc(-c5ccccc5)nc4c3)c3c(N)nccn32)C1` [Linsitinib]: the drug sensitivity score in assay [1] amounted to 1; in assay [2], 3.6.
As to `CCNCCS(=O)(=O)NC[C@@]1(c2ccccc2)SC(NC(=O)C(C)(C)C)=NN1C(=O)C(C)(C)C` [Litronesib], the results for the drug sensitivity score in assay [1] and in assay [2] were 13 and 17.3, respectively.
With `Nc1nc(OCc2cc(Br)cs2)c2[nH]cnc2n1` [Lomeguatrib], the drug sensitivity score in assay [1] and in assay [2] was 0 throughout.
Regarding `NC(=O)N1CCC(CC(=O)N2CCC([C@H]3c4ncc(Br)cc4CCc4cc(Cl)cc(Br)c43)CC2)CC1` [Lonafarnib], the drug sensitivity score in assay [1] and in assay [2] was 0 in each case.
In the case of `Cc1c(F)cc(C(=O)NC2CC2)cc1-c1ccc(C(=O)NCC(C)(C)C)cn1` [Losmapimod], the drug sensitivity score in assay [1] came out at 1.4; in assay [2] it was 0.4.
Take `CC[C@H](C)C(=O)O[C@H]1C[C@@H](C)C=C2C=C[C@H](C)[C@H](CC[C@@H]3C[C@@H](O)CC(=O)O3)[C@H]21` [Lovastatin]: the drug sensitivity score in assay [1] and in assay [2] was 0 each time.
As to `CNC(=O)c1cccc2cc(Oc3ccnc4cc(OCC5(N)CC5)c(OC)cc34)ccc12` [Lucitanib], the drug sensitivity score in assay [1] is 0.9; in assay [2], 2.9.
Consider `CCNC(=O)c1noc(-c2cc(C(C)C)c(O)cc2O)c1-c1ccc(CN2CCOCC2)cc1` [Luminespib], for which the drug sensitivity score in assay [1] is 19.7; in assay [2] it was 18.1.
Taken in the same sequence, the figures for `O=C(O)CC[C@H]1CC[C@@](c2cc(F)ccc2F)(S(=O)(=O)c2ccc(Cl)cc2)CC1` [MK-0752] were 0 and 0.1.
Taken in the same sequence, the figures for `NC1(c2ccc(-c3nc4ccn5c(=O)[nH]nc5c4cc3-c3ccccc3)cc2)CCC1` [MK-2206] were 8.9 and 8.3.
For `O=C(c1cccc(Cl)c1F)N1CCN(Cc2cccc(Nc3nccs3)n2)CC1` [MK-8745], the drug sensitivity score was 2.4 in assay [1] and 5.4 in assay [2].
Taken in the same sequence, the figures for `Cn1cc(-c2cnn3c(N)c(Br)c([C@@H]4CCCNC4)nc23)cn1` [MK-8776] were 1.3 and 1.1.
As for `Cc1cnc(-c2ccccc2C(C)C)nc1NCc1ccc(-n2ccnn2)cc1` [ML323], the drug sensitivity score in assay [1] stood at 0; in assay [2], 0.4.
Taken in the same sequence, the figures for `O=C(CCNC(=O)c1ccc(OC(F)(F)F)cc1)N[C@@H]1CCCc2ccccc21` [ML390] were 3 and 5.2.
Turning to `O=C(Nc1cccc(NC(=O)c2cccc(O)c2O)c1)c1cccc(O)c1O` [MST-312], the drug sensitivity score is 9.7 in assay [1] and 10 in assay [2].
On to `CNC(=O)[C@@H](NC(=O)[C@H](CC(C)C)[C@H](O)C(=O)NO)C(C)(C)C` [Marimastat], for which the drug sensitivity score worked out at 0.8 in assay [1] and 1.1 in assay [2].
Taken in the same sequence, the figures for `Cc1ccc(NC(=O)c2ccc(CN3CCN(C)CC3)cc2)cc1Nc1nc(-c2cccnc2)cs1` [Masitinib] were 1.8 and 3.1.
Taken in the same sequence, the figures for `CC(=O)O[C@]1(C(C)=O)CC[C@H]2[C@@H]3C=C(C)C4=CC(=O)CC[C@]4(C)[C@H]3CC[C@@]21C` [Megestrol acetate] were 0 and 2.2.
As for `CCN(CC)CCCC(C)Nc1c2ccc(Cl)cc2nc2ccc(OC)cc12` (stereo not given) [Mepacrine], the drug sensitivity score in assay [1] was determined as 14.7; in assay [2], 16.2.
Taken in the same sequence, the figures for `S=c1[nH]cnc2nc[nH]c12` [Mercaptopurine] were 0.7 and 10.9.
Taken in the same sequence, the figures for `Cc1ccc(C(=O)Nc2ccc(Oc3cc4cnn(C)c4cc3-c3cn[nH]c3)c(F)c2)c(=O)n1-c1ccc(F)cc1` [Merestinib] were 0 and 0.
On to `CN(C)C(=N)NC(=N)N` [Metformin], for which the drug sensitivity score in assay [1] and in assay [2] was 0 throughout.
Regarding `CN(Cc1cnc2nc(N)nc(N)c2n1)c1ccc(C(=O)N[C@@H](CCC(=O)O)C(=O)O)cc1` [Methotrexate], the results for the drug sensitivity score in assay [1] and in assay [2] were 0 and 1, respectively.
For the molecule `C[C@H]1C[C@@H]2[C@H]([C@@H](O)C[C@@]3(C)[C@H]2CC[C@]3(O)C(=O)CO)[C@@]2(C)C=CC(=O)C=C12` [Methylprednisolone], the drug sensitivity score worked out at 0 in assay [1] and 5.2 in assay [2].
On to `CO[C@@H]1[C@H](N(C)C(=O)c2ccccc2)C[C@H]2O[C@]1(C)n1c3ccccc3c3c4c(c5c6ccccc6n2c5c31)C(=O)NC4` [Midostaurin], for which the drug sensitivity score worked out at 4.8 in assay [1] and 7.3 in assay [2].
As for `CNC(=O)c1nn(C)c2c1C(C)(C)Cc1cnc(Nc3ccc(N4CCN(C)CC4)cc3)nc1-2` [Milciclib], the drug sensitivity score is 7.5 in assay [1] and 8.3 in assay [2].
Taken in the same sequence, the figures for `CCCCCCCCCCCCCCCCOP(=O)([O-])OCC[N+](C)(C)C` [Miltefosine] were 3.9 and 2.7.
Taken in the same sequence, the figures for `CO[C@@]12[C@H](COC(N)=O)C3=C(C(=O)C(C)=C(N)C3=O)N1C[C@@H]1N[C@@H]12` [Mitomycin C] were 0 and 0.
Taken in the same sequence, the figures for `Clc1ccc(C(c2ccccc2Cl)C(Cl)Cl)cc1` (stereo not given) [Mitotane] were 0 and 0.6.
Regarding `O=C1c2c(O)ccc(O)c2C(=O)c2c(NCCNCCO)ccc(NCCNCCO)c21` [Mitoxantrone], the drug sensitivity score in assay [1] was found to be 5.1; in assay [2], 4.5.
Taken in the same sequence, the figures for `CCS(=O)(=O)Nc1ccc(Oc2ccc(F)cc2F)c(-c2cn(C)c(=O)c3[nH]ccc23)c1` [Mivebresib] were 31.1 and 29.9.
Taken in the same sequence, the figures for `Nc1ccccc1NC(=O)c1ccc(CNc2nccc(-c3cccnc3)n2)cc1` [Mocetinostat] were 17.7 and 16.
Regarding `CCNC(=O)C[C@@H]1N=C(c2ccc(Cl)cc2)c2cc(OC)ccc2-n2c(C)nnc21` [Molibresib], the drug sensitivity score came out at 9.8 in assay [1] and 10 in assay [2].
Taken in the same sequence, the figures for `N#CCNC(=O)c1ccc(-c2ccnc(Nc3ccc(N4CCOCC4)cc3)n2)cc1` [Momelotinib] were 2.2 and 4.7.
In the case of `CC1(C)CNc2cc(NC(=O)c3cccnc3NCc3ccncc3)ccc21` [Motesanib], the drug sensitivity score was 0.3 in assay [1] and 1 in assay [2].
For the molecule `CCCN(CCC)C(=O)C1=Cc2ccc(-c3ccc(C(=O)N4CCCC4)cc3)cc2N=C(N)C1` [Motolimod], the drug sensitivity score in assay [1] is 0; in assay [2], 0.1.
Taken in the same sequence, the figures for `FC(F)(F)c1ccc(/C=C/c2nc(COc3ccc(CCCCn4ccnn4)cc3)co2)cc1` [Mubritinib] were 4 and 7.8.
In the case of `Cc1cc(OCc2nnc(SC3CCCC3)n2-c2cccnc2)ccc1-c1ccc(S(C)(=O)=O)cc1` [NMS-873], the figures for the drug sensitivity score in assay [1] and in assay [2] were 9.1 and 11.4, respectively.
For `COc1ccc(-c2ccc3ncc4c(c3c2)n(-c2ccc(N3CCNCC3)c(C(F)(F)F)c2)c(=O)n4C)cn1` [NVP-BGT226], the drug sensitivity score in assay [1] was determined as 24.4; in assay [2], 24.8.
Taken in the same sequence, the figures for `Cc1ccc(C(=O)Nc2cccc(C(F)(F)F)c2)cc1Nc1nc(-c2cccnc2)nc2c1cnn2C` [NVP-BHG712] were 1.2 and 1.9.

The values above are taken from the supplement of paper PMC7224384.
